Article PMC10905675, “INX-315, a Selective CDK2 Inhibitor, Induces Cell Cycle Arrest and Senescence in Solid Tumors” (Cancer Discovery, 2023)
Where two headings read alike, the source gives them in different places.

Assays:
[1] = Microsomal stability assay; assay type: in vitro ADME
Experimental: Microsomal stability was determined by Absorption Systems (Exton, PA). INX-315 was tested in mixed-gender human liver microsomes (Lot #1010420), male Sprague-Dawley rat liver microsomes (Lot #1910100), male CD-1 mouse liver microsomes (Lot #2010017), and male beagle dog liver microsomes (Lot #2010046) were purchased from XenoTech/BioIVT by Absorption Systems. The reaction mixture, minus NADPH, was prepared as described below. The test article was added into the reaction mixture at a final concentration of 1 µmol/L. The control compound, testosterone, was run simultaneously with the test article in a separate reaction. The reaction mixture (without cofactor) was equilibrated in a shaking water bath at 37°C for 5 minutes. The reaction was initiated by the addition of the cofactor, and the mixture was incubated in a shaking water bath at 37°C. Aliquots (100 µL) were withdrawn at 0, 10, 20, 30, and 60 minutes. Test article and testosterone samples were immediately combined with 400 µL of ice-cold 50/50 acetonitrile (ACN)/H2O containing 0.1% formic acid and internal standard to terminate the reaction. The samples were then mixed and centrifuged to precipitate proteins. All samples were assayed by LC-MS/MS using electrospray ionization. The peak area response ratio (PARR) of analyte to internal standard at each time point was compared to the PARR at time 0 to determine the percent remaining at each time point. Half-lives and clearance were calculated using GraphPad software (RRID:SCR_002798), fitting to a single-phase exponential decay equation.

CDK1/cyclin B1 = target: T1, CDK1/cyclin B1 (Homo sapiens, UniProt P06493); test: Nanosyn biochemical assay; conditions: ATP at Km, value (SEM), read-out: IC50 (nmol/L) CDK1/cyclin B1
T1 construct: purchased Millipore 14-450M
Experimental: (§1) Compounds were tested in kinase assays (Nanosyn, Inc.). The assays were completed using microfluidic kinase detection technology (Caliper Assay Platform). The compounds were tested in 12-point dose–response format in singlicate at the Km for ATP. Phosphoacceptor substrate peptide concentration used was 1 µmol/L and staurosporine was used as the reference compound for all assays. Details for individual Nanosyn assays performed are provided here: […]

CDK7 = target: T2, CDK7 (Homo sapiens, UniProt P50613); test: Nanosyn biochemical assay; conditions: ATP at Km, value (SEM), read-out: IC50 (nmol/L) CDK7
T2 construct: purchased Carna 04-108
Experimental: as §1

CDK2/cyclin E1 = target: T3, CDK2/cyclin E1 (Homo sapiens, UniProt P24941); test: Nanosyn biochemical assay; conditions: Nanosyn, ATP at Km; value (SEM); read-out: IC50 (nmol/L) CDK2/cyclin E1
T3 construct: purchased Millipore 14-475
Experimental: as §1

CDK5 = target: T4, CDK5 (Homo sapiens, UniProt Q00535); test: Nanosyn biochemical assay; conditions: ATP at Km, value (SEM), read-out: IC50 (nmol/L) CDK5
T4 construct: purchased ThermoFisher PV3000
Experimental: as §1

CDK6/cyclin D3 = target: T5, CDK6/cyclin D3 (Homo sapiens, UniProt Q00534); test: Nanosyn biochemical assay; conditions: ATP at Km, value (SEM), read-out: IC50 (nmol/L) CDK6/cyclin D3
T5 construct: purchased Carna 04-107
Experimental: as §1

CDK2/cyclin A2 = target: T6, CDK2/cyclin A2 (Homo sapiens, UniProt P24941); test: Nanosyn biochemical assay; conditions: ATP at Km, value (SEM), read-out: IC50 (nmol/L) CDK2/cyclin A2
T6 construct: purchased Millipore 14-448
Experimental: as §1

CDK5/p25 = target: T7, CDK5/p25 (Homo sapiens, UniProt Q00535); test: Nanosyn biochemical assay; conditions: ATP at Km, value (SEM), read-out: IC50 (nmol/L) CDK5/p25
T7 construct: purchased BPS 40105
Experimental: as §1

[2] = system: palbociclib-resistant MCF7 cells; test: CellTiter Glo viability assay; assay type: cell-based; conditions: Homo sapiens, MCF7, Supp Fig S9B, CDK4/6 inhibitor monotherapy; read-out: IC50
Experimental: An exception to this is MCF7PDRCl5-1 cells which were first cultured for 5 days without palbociclib then plated as described. MCF7PDRCl5-1 cells were treated with either a dose curve of the indicated CDK4/6i or a dose curve of INX-315 + 1 µmol/L of the indicated CDK4/6i. Cell viability was determined using the CellTiter-Glo assay (Promega, G9241) following manufacturer's instructions. Plates were processed on either BioTek Synergy2 multi-mode (Agilent) or ClarioSTAR (BMG Labtech) plate readers. T47D and MCF7 cells were seeded into […] plates using BioTek 406 (Aglient) and treated with a ten-point dose concentration from 10 µmol/L to 0.3 nmol/L of INX-315 for 2× doubling times. Plates were fixed with 4% PFA and stained with Rhodamine-Phalloidin (Bio-Trend, 00027) and DAPI (5 mg/mL, Invitrogen, catalog no. D1306). Plates were imaged using CellInsight CX7 LZR and DAPI-positive cells were counted using Thermo Fisher Scientific HCS Studio Cell Analysis Software.

[3] = both sexes, human, liver microsomes, 1 µmol/L, 60 min incubation, read-out: Half-life
[4] = male, CD-1, liver microsomes, Mouse microsomes, 60 min incubation
[5] = male, Sprague-Dawley, rat, liver microsomes, 1 µmol/L, 60 min incubation, read-out: Half-life
[6] = male, beagle, dog, liver microsomes, 1 µmol/L, 60 min incubation, read-out: Half-life

T4 sequence (Q00535 whole entry): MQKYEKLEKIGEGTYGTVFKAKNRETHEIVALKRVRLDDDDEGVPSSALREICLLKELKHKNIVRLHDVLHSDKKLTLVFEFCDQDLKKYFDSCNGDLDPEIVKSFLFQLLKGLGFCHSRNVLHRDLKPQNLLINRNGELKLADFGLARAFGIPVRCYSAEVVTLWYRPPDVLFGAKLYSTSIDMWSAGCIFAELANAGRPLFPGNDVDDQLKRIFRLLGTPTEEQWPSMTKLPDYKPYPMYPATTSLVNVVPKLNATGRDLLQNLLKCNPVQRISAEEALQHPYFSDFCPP
T4 sequence (Q15078 2-307 partner limits assumed): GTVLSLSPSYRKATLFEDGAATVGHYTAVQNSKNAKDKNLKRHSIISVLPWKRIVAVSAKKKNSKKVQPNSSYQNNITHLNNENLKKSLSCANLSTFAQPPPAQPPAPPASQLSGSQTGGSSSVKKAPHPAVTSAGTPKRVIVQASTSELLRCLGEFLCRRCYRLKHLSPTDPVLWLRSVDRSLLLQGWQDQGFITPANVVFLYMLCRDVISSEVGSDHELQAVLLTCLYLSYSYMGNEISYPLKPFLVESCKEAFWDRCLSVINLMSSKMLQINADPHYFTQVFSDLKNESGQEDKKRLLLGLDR
T2 sequence (P50613 whole entry): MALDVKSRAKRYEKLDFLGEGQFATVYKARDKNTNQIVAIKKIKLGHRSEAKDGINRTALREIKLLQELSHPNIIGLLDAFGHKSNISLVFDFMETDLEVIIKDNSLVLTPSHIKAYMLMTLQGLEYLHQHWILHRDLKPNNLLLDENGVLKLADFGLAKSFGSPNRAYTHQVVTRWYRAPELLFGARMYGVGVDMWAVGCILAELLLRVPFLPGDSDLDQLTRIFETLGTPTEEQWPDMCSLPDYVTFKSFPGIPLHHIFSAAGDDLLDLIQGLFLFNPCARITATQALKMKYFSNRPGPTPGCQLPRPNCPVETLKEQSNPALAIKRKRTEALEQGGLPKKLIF
T2 sequence (P51946 whole entry partner): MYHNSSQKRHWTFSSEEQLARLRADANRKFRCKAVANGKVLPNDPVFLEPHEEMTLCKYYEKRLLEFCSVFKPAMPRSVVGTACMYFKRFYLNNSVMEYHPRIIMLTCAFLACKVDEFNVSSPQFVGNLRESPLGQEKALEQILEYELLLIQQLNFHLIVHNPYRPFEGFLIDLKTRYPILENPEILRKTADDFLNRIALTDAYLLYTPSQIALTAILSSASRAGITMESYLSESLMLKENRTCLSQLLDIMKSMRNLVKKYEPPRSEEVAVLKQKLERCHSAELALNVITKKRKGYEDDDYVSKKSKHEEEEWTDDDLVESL
T2 sequence (P51948 whole entry partner): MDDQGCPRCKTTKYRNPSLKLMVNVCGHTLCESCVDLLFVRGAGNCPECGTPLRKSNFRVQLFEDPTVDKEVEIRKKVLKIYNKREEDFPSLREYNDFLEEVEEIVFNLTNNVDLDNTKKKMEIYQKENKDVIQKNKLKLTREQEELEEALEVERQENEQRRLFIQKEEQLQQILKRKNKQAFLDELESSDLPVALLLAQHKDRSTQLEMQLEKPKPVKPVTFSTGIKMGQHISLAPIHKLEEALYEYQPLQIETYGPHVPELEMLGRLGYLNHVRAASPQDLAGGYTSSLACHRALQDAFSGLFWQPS
T1 sequence (P06493 whole entry): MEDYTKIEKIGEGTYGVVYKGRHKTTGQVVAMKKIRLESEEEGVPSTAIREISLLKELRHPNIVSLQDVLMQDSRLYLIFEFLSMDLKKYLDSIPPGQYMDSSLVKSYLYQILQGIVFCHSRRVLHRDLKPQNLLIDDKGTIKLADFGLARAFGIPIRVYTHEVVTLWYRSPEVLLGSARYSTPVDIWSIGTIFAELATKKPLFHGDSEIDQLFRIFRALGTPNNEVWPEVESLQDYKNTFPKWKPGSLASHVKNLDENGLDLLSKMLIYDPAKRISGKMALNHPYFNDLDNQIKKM
T1 sequence (P14635 whole entry partner): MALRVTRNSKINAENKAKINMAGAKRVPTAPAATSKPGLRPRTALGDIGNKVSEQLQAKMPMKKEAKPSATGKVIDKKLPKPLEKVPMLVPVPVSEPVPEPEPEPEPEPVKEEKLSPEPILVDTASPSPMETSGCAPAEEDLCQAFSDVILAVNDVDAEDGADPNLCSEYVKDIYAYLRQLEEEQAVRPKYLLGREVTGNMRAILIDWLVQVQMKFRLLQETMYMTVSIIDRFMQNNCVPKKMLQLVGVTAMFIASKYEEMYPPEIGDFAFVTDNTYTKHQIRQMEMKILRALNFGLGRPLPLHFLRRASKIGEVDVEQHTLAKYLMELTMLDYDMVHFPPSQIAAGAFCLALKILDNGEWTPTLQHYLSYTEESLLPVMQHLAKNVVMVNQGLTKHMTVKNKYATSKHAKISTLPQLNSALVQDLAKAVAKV
T7 sequence (Q00535 whole entry): as the sequence (Q00535 whole entry) above
T7 sequence (Q15078 99-307 partner limits assumed): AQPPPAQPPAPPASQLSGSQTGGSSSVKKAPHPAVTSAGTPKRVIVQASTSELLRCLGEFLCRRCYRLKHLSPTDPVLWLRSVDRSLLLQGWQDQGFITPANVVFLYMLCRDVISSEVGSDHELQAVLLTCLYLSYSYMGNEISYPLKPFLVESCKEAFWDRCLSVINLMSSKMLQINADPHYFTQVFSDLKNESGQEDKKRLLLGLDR
T5 sequence (Q00534 whole entry): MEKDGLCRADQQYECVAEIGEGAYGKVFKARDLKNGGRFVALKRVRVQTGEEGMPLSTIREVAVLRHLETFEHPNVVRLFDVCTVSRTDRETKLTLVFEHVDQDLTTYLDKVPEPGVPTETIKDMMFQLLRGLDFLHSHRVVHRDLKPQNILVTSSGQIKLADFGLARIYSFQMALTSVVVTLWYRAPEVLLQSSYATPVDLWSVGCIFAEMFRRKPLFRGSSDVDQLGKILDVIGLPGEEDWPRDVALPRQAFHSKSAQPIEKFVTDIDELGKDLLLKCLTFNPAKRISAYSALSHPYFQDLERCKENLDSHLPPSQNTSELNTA
T5 sequence (P30281 whole entry partner): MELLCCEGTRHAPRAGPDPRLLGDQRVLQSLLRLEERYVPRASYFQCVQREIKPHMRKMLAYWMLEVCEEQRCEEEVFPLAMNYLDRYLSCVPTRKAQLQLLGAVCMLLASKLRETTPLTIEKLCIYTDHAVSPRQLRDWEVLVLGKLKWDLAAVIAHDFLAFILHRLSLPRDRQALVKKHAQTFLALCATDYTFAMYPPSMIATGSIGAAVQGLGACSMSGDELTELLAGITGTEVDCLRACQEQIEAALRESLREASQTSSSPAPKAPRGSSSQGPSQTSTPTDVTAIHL

half-life at 1 µmol/L [1, 3] [min]	half-life at 1 µmol/L [1, 4] [min]	half-life at 1 µmol/L [1, 5] [min]	half-life at 1 µmol/L [1, 6] [min]	IC50 (CDK1/cyclin B1) [nmol/L]	IC50 (CDK7) [nmol/L]	IC50 (CDK2/cyclin E1) [nmol/L]	IC50 (CDK5) [nmol/L]	IC50 (CDK6/cyclin D3) [nmol/L]	IC50 (CDK2/cyclin A2) [nmol/L]	half-life at 1 µmol/L ([1]; both sexes, human, liver microsomes, longer than the duration of the experiment, read-out: calculated half-life (in parenthesis)) [min]	half-life at 1 µmol/L ([1]; male, Sprague-Dawley, rat, liver microsomes, longer than the duration of the experiment, read-out: calculated half-life (in parenthesis)) [min]	IC50 (CDK5/p25) [nmol/L]	IC50 [2] [nM]	Structure (SMILES)
15.3	< 10	< 10	23.4	41	796	5	50.2	214	4	–	–	–	–	C[C@@H]1NC(=O)C2(CCCCC2)n2c1cc1cnc(Nc3ccc(S(N)(=O)=O)cc3)nc12 [Compound C]
> 60	28	> 60	5	–	4640	–	1240	–	–	66	73	1710	–	CN1CCN(c2ccc(Nc3ncc4cc5n(c4n3)C3(CCCCC3)CNC5=O)nc2)CC1 [Trilaciclib, reference compound]
–	–	–	–	–	–	–	–	–	–	–	–	–	1420	CC(C)N1CCN(c2ccc(Nc3ncc4cc5n(c4n3)C3(CCCCC3)CNC5=O)nc2)CC1 [Lerociclib, lerociclib, reference compound]
